In general, IC50 refers to the concentration that gives 50% inhibition. As a reminder, the Kd is the constant that tells how readily two partners part at equilibrium. Read a high Kd as weaker binding. What is called inhibition is the change of the read-out against control, counted positive when it falls.

The test system of test [1] is GM-CSF induced STAT5 phopsphorylation mediated by the JAK2/JAK2 homodimeric complex. Kind of test: GM-CSF Induced pSTAT5 in Human PBMC. It counts as cell-based. Particulars: 20 min, GM-CSF 5 ng/mL for 20 minutes, read-out: PBMC_GMCSF_pSTAT5 IC50. As to the method: (§1) Human PBMC were isolated from buffy coat and were stored frozen for assays as needed. Cells for assay were thawed and resuspended in complete media containing serum, then cells were diluted to 1.67 E6 cells/mL so that 120 μl per well is 200,000 cells. 15 μl of compound or DMSO was added to the well at the desired concentrations and incubated at 1 hr at 37 C. 15 μl of stimulus (final concentration of 1.7 ng/mL IL-12) was added for 30 minutes prior to pSTAT4 and total STAT4 analysis using cell lysates prepared and analyzed by MSD reagents as per manufacturer protocol. The final DMSO concentration of compound in the assay was 0.1%.
Cells were prepared for analysis as in the above procedure and 15 μl of GM-CSF (final concentration 5 ng/mL) was added for 20 minutes prior to pSTAT5 and total STAT5 analysis using cell lysates prepared and analyzed by MSD reagents as per manufacturer protocol. The final DMSO concentration of compound in the assay was 0.1%.
The GM-CSF Induced pSTAT5 assay is a JAK2 cellular selectivity assay which evaluates inhibition of GM-CSF induced STAT5 phopsphorylation mediated by the JAK2/JAK2 homodimeric complex.

Test [2] deals with IL-12 induced STAT4 phophorylation mediated by TYK2/JAK2 (heterodimeric complex). Kind of test: IL-12 Induced pSTAT4 in Human PBMC. It counts as cell-based. The conditions noted are these: 1.7 ng/mL IL-12 for 30 minutes, 1 hr compound preincubation. As to the method: as §1
The IL-12 Induced pSTAT4 assay evaluates the inhibition of IL-12 induced STAT4 phophorylation mediated by TYK2/JAK2 (heterodimeric complex).

The target of test [3] is human TYK2 (JH2domain-pseudokinase) (Homo sapiens (Human), UniProt P29597). Briefly: TYK2 JH2 Domain Binding Assay (KINOMEscan). Particulars: 11-point 3-fold dilution, top concentration 30,000 nM, duplicate. The essentials:
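Competition binding used an NFkB-DNA-tagged fusion of TYK2 JH2 (G556–D888) expressed in HEK293 extracts against an immobilised ligand, 1 h at room temperature. Bead-bound kinase was quantified by qPCR. Kd came from an 11-point 3-fold series with a 30,000 nM top concentration and 0.9% DMSO, Hill slope −1, run in duplicate.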

For test [4], the target named is TYK2 kinase domain (JH1) (Homo sapiens (Human), UniProt P29597). Briefly: TYK2 Radioactive Kinase Assay. Format: biochemical. Particulars: compound at 10 μM; ATP at 10 μM; 120 min at room temp.
Chain of TYK2 kinase domain (JH1) (P29597 897-1176): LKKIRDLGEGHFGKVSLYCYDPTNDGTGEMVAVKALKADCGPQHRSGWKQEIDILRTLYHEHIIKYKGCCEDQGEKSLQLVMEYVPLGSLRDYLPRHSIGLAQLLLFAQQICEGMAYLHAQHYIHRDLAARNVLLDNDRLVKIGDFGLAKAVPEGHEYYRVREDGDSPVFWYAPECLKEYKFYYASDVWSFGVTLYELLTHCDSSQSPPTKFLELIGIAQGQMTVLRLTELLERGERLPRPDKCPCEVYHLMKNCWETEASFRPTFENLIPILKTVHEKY
Test [5] addresses JAK2 kinase domain (JH1) (Homo sapiens (Human), UniProt O60674). Kind of test: JAK2 Radioactive Kinase Assay. The conditions noted are these: compound at 10 μM; ATP at 10 μM; substrate poly[Glu:Tyr](4:1). Format: biochemical.

Chain of human TYK2 (JH2domain-pseudokinase) (P29597 556-888): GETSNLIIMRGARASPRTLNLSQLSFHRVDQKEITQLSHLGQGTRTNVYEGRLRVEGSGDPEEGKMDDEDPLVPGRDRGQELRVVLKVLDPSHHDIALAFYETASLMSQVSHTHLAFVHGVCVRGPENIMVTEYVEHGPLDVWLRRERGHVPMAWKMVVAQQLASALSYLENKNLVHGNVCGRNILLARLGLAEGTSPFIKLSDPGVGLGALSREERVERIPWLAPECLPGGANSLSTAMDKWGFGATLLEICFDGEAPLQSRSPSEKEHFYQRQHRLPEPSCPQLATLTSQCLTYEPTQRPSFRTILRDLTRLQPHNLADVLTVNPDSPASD
Chain of JAK2 kinase domain (JH1) (O60674 849-1124): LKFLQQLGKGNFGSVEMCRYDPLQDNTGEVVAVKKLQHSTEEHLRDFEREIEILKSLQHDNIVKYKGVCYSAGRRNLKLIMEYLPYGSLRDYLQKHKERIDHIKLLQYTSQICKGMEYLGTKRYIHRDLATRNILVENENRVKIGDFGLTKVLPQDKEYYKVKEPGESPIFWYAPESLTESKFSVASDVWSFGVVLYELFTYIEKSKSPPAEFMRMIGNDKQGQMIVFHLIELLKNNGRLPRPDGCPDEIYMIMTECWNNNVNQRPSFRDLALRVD

Take `CNC(=O)c1cnc(NC(=O)C2CC2)c2[nH]c(-c3cccc(-c4cnn(C)c4)c3F)cc12` [Compound I-19, 7-(cyclopropanecarboxamido)-2-(2-fluoro-3-(1-methyl-1H-pyrazol-4-yl)phenyl)-N-methyl-1H-pyrrolo[2,3-c]pyridine-4-carboxamide]: the IC50 was greater than 300 nM in test [1] and less than 100 nM in test [2]. Moreover, the Kd in test [3] was less than 0.2 nM. Moreover, the inhibition at 10 µM in test [4] and in test [5] was less than 50% throughout.

In the case of `CNC(=O)c1cnc(NC(=O)C2CC2)c2[nH]c(-c3ccccc3N3CCCS3(=O)=O)cc12` [Compound I-4, 7-(cyclopropanecarboxamido)-2-(2-(1,1-dioxidoisothiazolidin-2-yl)phenyl)-N-methyl-1H-pyrrolo[2,3-c]pyridine-4-carboxamide], the figures for the IC50 in test [1] and in test [2] were greater than 12500 nM and less than 100 nM, respectively. In addition, in test [3], the dissociation constant Kd is less than 0.2 nM. Moreover, the inhibition at 10 µM in test [4] and in test [5] was less than 50% each time.

On to `Cn1cnc(-c2cccc(-c3cc4c(C(N)=O)cnc(NC(=O)C5CC5)c4[nH]3)c2)n1` [Compound I-12, 7-(cyclopropanecarboxamido)-2-(3-(1-methyl-1H-1,2,4-triazol-3-yl)phenyl)-1H-pyrrolo[2,3-c]pyridine-4-carboxamide], for which the IC50 is greater than 300 nM in test [1] and less than 100 nM in test [2]. Besides, in test [3], the dissociation constant (Kd) is less than 0.2 nM. Besides, the inhibition at 10 µM in test [4] and in test [5] was greater than 90% in each case.

Regarding `CNC(=O)c1cnc(NC(=O)C2CC2)c2[nH]c(-c3cccc(-c4ncco4)c3F)cc12` [Compound I-23, 7-(cyclopropanecarboxamido)-2-(2-fluoro-3-(oxazol-2-yl)phenyl)-N-methyl-1H-pyrrolo[2,3-c]pyridine-4-carboxamide], the IC50 was greater than 50000 nM in test [1] and less than 100 nM in test [2]. Besides, in test [3], the Kd was less than 0.2 nM. Moreover, the inhibition at 10 µM in test [4] and in test [5] was less than 50% throughout.

These data come from patent publication US11053241B2, “TYK2 inhibitors and uses thereof” (Nimbus Lakshmi, Inc., priority 2018, dated 2021).
